Measurements as given in US11091478B2 (Fochon Pharmaceuticals, Ltd., priority 2017, dated 2021).
pIC50: −log10 of the molar value.

Key:
RS4;11 cells = assay: Cell proliferation assay (MTS), RS4;11 cells, 72 h; format: cell-based; details: Homo sapiens, RS4-11, 72 h
Procedure, shortened: (§1)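 Treatment lasts 72 h for RS4;11 and 120 h for DOHH2 cells seeded at 5000 per well in serum-containing RPMI-1640. A 2 h MTS step, halted with 10% SDS, precedes dual-wavelength absorbance reading and IC50 fitting.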

DOHH2 cells = assay: Cell proliferation assay (MTS), DOHH2 cells, 120 h; format: cell-based; details: Homo sapiens, DOHH-2, 120 h
Procedure, shortened: as §1

Compound | pIC50 (RS4;11 cells) | pIC50 (DOHH2 cells)
CC1(C)CCC(CN2CCN(c3ccc(C(=O)NS(=O)(=O)c4cc5c(c([N+](=O)[O-])c4)N[C@@H](c4ccc(S(C)(=O)=O)cc4)CO5)c(Oc4cnc5[nH]ccc5c4)c3)CC2)=C(c2ccc(Cl)cc2)C1 [Example 2-168, (S)-2-((1H-pyrrolo[2,3-b]pyridin-5-yl)oxy)-4-(4-((4′-chloro-5,5-dimethyl-3,4,5,6-tetra-hydro-[1,1′-biphenyl]-2-yl)methyl)piperazin-1-yl)-N-((3-(4-(methylsulfonyl)phenyl)-5-nitro-3,4-dihydro-2H-benzo[b][1,4]oxazin-7-yl)sulfonyl)benzamide] | 7.48 | 7.49
CC1(C)CCC(CN2CCN(c3ccc(C(=O)NS(=O)(=O)c4cc5c(c([N+](=O)[O-])c4)NC(CC4CCOCC4)CO5)c(Oc4cnc5[nH]ccc5c4)c3)CC2)=C(c2ccc(Cl)cc2)C1 (stereo not shown) [Example 2-180, 2-((1H-pyrrolo[2,3-b]pyridin-5-yl)oxy)-4-(4-((4′-chloro-5,5-dimethyl-3,4,5,6-tetrahydro-[1,1′-biphenyl]-2-yl)methyl)piperazin-1-yl)-N-((5-nitro-3-((tetrahydro-2H-pyran-4-yl)methyl)-3,4-dihydro-2H-benzo[b][1,4]oxazin-7-yl)sulfonyl)benzamide] | 8.10 | 7.82
CC1(C)CCC(CN2CCN(c3ccc(C(=O)NS(=O)(=O)c4cc5c(c([N+](=O)[O-])c4)N[C@H](CC4CCOCC4)CO5)c(Oc4cnc5[nH]ccc5c4)c3)CC2)=C(c2ccc(Cl)cc2)C1 [Example 2-181, (R)-2-((1H-pyrrolo[2,3-b]pyridin-5-yl)oxy)-4-(4-((4′-chloro-5,5-dimethyl-3,4,5,6-tetra-hydro-[1,1′-biphenyl]-2-yl)methyl)piperazin-1-yl)-N-((5-nitro-3-((tetrahydro-2H-pyran-4-yl)methyl)-3,4-dihydro-2H-benzo[b] [1,4]oxazin-7-yl)sulfonyl)benzamide] | 7.35 | 7.08
CC1(C)CCC(CN2CCN(c3ccc(C(=O)NS(=O)(=O)c4cc5c(c([N+](=O)[O-])c4)N[C@@H](CC4CCOCC4)CO5)c(Oc4cnc5[nH]ccc5c4)c3)CC2)=C(c2ccc(Cl)cc2)C1 [Example 2-182, (S)-2-((1H-pyrrolo[2,3-b]pyridin-5-yl)oxy)-4-(4-((4′-chloro-5,5-dimethyl-3,4,5,6-tetra-hydro-[1,1′-biphenyl]-2-yl)methyl)piperazin-1-yl)-N-((5-nitro-3-((tetrahydro-2H-pyran-4-yl)methyl)-3,4-dihydro-2H-benzo[b] [1,4]oxazin-7-yl)sulfonyl)benzamide] | 8.52 | 7.80
CC1(C)CCC(CN2CCN(c3ccc(C(=O)NS(=O)(=O)c4cc5c(c([N+](=O)[O-])c4)N[C@@H](COC4CCOCC4)CO5)c(Oc4cnc5[nH]ccc5c4)c3)CC2)=C(c2ccc(Cl)cc2)C1 [Example 2-183, (S)-2-((1H-pyrrolo[2,3-b]pyridin-5-yl)oxy)-4-(4-((4′-chloro-5,5-dimethyl-3,4,5,6-tetra-hydro-[1,1′-biphenyl]-2-yl)methyl)piperazin-1-yl)-N-((5-nitro-3-(((tetrahydro-2H-pyran-4-yl)oxy)methyl)-3,4-dihydro-2H-benzo [b][1,4]oxazin-7-yl)sulfonyl)benzamide] | 8.40 | 7.70
CC1(C)CCC(CN2CCN(c3ccc(C(=O)NS(=O)(=O)c4cc5c(c([N+](=O)[O-])c4)N[C@H](COC4CCOCC4)CO5)c(Oc4cnc5[nH]ccc5c4)c3)CC2)=C(c2ccc(Cl)cc2)C1 [Example 2-184, (R)-2-((1H-pyrrolo[2,3-b]pyridin-5-yl)oxy)-4-(4-((4′-chloro-5,5-dimethyl-3,4,5,6-tetra-hydro-[1,1′-biphenyl]-2-yl)methyl)piperazin-1-yl)-N-((5-nitro-3-(((tetrahydro-2H-pyran-4-yl)oxy)methyl)-3,4-dihydro-2H-benzo [b][1,4]oxazin-7-yl)sulfonyl)benzamide] | 8.52 | 7.96
CC1(C)CCC(CN2CCN(c3ccc(C(=O)NS(=O)(=O)c4cc5c(c([N+](=O)[O-])c4)NC(C4CCOCC4)CO5)c(Oc4cnc5[nH]ccc5c4)c3)CC2)=C(c2ccc(Cl)cc2)C1 (stereo not shown) [Example 2-185, 2-((1H-pyrrolo[2,3-b]pyridin-5-yl)oxy)-4-(4-((4′-chloro-5,5-dimethyl-3,4,5,6-tetra-hydro[1,1′-biphenyl]-2-yl)methyl)piperazin-1-yl)-N-((5-nitro-3-(tetrahydro-2H-pyran-4-yl)-3,4-dihydro-2H-benzo[b][1,4]oxazin-7-yl)sulfonyl)benzamide] | 9.00 | 8.52

The next lines start with results.

pIC50 (RS4;11 cells) | Compound | pIC50 (DOHH2 cells)
7.28 | CC1(C)CCC(CN2CCN(c3ccc(C(=O)NS(=O)(=O)c4cc5c(c([N+](=O)[O-])c4)N[C@H](c4ccc(S(C)(=O)=O)cc4)CO5)c(Oc4cnc5[nH]ccc5c4)c3)CC2)=C(c2ccc(Cl)cc2)C1 [Example 2-175, (R)-2-((1H-pyrrolo[2,3-b]pyridin-5-yl)oxy)-4-(4-((4′-chloro-5,5-dimethyl-3,4,5,6-tetra-hydro-[1,1′-biphenyl]-2-yl)methyl)piperazin-1-yl)-N-((3-(4-(methylsulfonyl)phenyl)-5-nitro-3,4-dihydro-2H-benzo[b][1,4]oxazin-7-yl)sulfonyl)benzamide] | 6.86
7.19 | COc1ccc([C@H]2COc3cc(S(=O)(=O)NC(=O)c4ccc(N5CCN(CC6=C(c7ccc(Cl)cc7)CC(C)(C)CC6)CC5)cc4Oc4cnc5[nH]ccc5c4)cc([N+](=O)[O-])c3N2)cc1 [Example 2-176, (S)-2-((1H-pyrrolo[2,3-b]pyridin-5-yl)oxy)-4-(4-((4′-chloro-5,5-dimethyl-3,4,5,6-tetra-hydro-[1,1′-biphenyl]-2-yl)methyl)piperazin-1-yl)-N-((3-(4-methoxyphenyl)-5-nitro-3,4-dihydro-2H-benzo[b][1,4]oxazin-7-yl)sul-fonyl)benzamide] | 6.26
7.89 | CC1(C)CCC(CN2CCN(c3ccc(C(=O)NS(=O)(=O)c4cc5c(c([N+](=O)[O-])c4)N[C@H](c4ccccn4)CO5)c(Oc4cnc5[nH]ccc5c4)c3)CC2)=C(c2ccc(Cl)cc2)C1 [Example 2-177, (R)-2-((1H-pyrrolo[2,3-b]pyridin-5-yl)oxy)-4-(4-((4′-chloro-5,5-dimethyl-3,4,5,6-tetra-hydro-[1,1′-biphenyl]-2-yl)methyl)piperazin-1-yl)-N-((5-nitro-3-(pyridin-2-yl)-3,4-di-hydro-2H-benzo[b][1,4]oxazin-7-yl)sulfonyl) benzamide] | 6.92
7.74 | COc1ccc([C@@H]2COc3cc(S(=O)(=O)NC(=O)c4ccc(N5CCN(CC6=C(c7ccc(Cl)cc7)CC(C)(C)CC6)CC5)cc4Oc4cnc5[nH]ccc5c4)cc([N+](=O)[O-])c3N2)nc1 [Example 2-179, (R)-2-((1H-pyrrolo[2,3-b]pyridin-5-yl)oxy)-4-(4-((4′-chloro-5,5-dimethyl-3,4,5,6-tetra-hydro-[1,1′-biphenyl]-2-yl)methyl)pieprazin-1-yl)-N-((3-(5-methoxypyridin-2-yl)-5-ni-tro-3,4-dihydro-2H-benzo[b][1,4]oxazin-7-yl)sulfonyl)benzamide] | 6.42
